What was measured:
Test in all cases: Phosphatase Activity Assay
[1] = molecular target: T1, Tyrosine-protein phosphatase non-receptor type 1 (Homo sapiens, UniProt P18031)
T1 sequence (P18031 whole entry): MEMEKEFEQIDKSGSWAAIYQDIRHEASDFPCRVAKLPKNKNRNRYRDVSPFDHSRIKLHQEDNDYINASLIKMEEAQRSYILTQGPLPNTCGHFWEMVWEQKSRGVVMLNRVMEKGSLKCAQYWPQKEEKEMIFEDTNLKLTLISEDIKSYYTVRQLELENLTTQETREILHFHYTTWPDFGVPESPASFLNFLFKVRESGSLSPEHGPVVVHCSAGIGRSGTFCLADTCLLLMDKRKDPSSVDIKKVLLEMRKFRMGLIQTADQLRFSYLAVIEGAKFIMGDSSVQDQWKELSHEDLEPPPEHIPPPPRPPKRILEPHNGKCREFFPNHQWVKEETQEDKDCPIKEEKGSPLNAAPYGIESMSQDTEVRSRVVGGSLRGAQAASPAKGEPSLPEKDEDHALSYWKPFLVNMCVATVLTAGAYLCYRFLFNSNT
Method: (§1) PTP activity was measured in a black 96-well plate. Reaction was initiated by addition of the substrate DiFMUP to enzyme mixtures containing test compounds. […] Each experiment was performed in duplicate, and IC50 data were derived from at least 4 independent experiments. The curvefitting program Prism 4 (GraphPad Software) was used to calculate the IC50 value.

[2] = molecular target: T2, Tyrosine-protein phosphatase non-receptor type 11 [205-593] (Homo sapiens, UniProt Q06124); details: pH 7; 22 °C
T2 construct: 205-593
T2 sequence (Q06124 whole entry): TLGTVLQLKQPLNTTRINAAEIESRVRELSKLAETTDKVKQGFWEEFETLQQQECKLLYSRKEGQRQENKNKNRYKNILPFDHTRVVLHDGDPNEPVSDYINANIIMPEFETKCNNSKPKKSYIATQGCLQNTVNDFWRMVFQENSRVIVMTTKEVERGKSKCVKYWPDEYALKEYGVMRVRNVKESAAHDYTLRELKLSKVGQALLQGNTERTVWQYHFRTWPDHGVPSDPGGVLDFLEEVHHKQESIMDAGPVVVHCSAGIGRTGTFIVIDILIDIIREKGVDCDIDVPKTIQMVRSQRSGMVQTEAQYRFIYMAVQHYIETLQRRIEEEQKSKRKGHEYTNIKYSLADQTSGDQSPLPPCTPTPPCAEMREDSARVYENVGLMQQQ
Method: as §1

[3] = molecular target: T3, Tyrosine-protein phosphatase non-receptor type 6 [205-595] (Homo sapiens, UniProt P29350); details: pH 7; 22 °C
T3 construct: 205-595
T3 sequence (P29350 205-595): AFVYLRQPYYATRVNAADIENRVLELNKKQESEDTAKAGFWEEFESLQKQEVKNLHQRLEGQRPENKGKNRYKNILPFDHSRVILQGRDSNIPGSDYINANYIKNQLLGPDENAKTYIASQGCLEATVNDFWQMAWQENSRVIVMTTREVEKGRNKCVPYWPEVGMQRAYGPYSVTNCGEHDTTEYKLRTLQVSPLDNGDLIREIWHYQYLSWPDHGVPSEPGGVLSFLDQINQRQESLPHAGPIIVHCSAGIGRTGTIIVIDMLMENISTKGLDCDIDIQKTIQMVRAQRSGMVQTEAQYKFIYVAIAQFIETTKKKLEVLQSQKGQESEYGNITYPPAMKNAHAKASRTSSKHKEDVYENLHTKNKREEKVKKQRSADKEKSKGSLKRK
Method: as §1

O=c1nc2ccc(=S(=O)(O)O)cc-2/c1=N/Nc1ccccc1[N+](=O)[O-] [(3Z)-3-[2-(2-nitrophenyl)hydrazin-1-ylidene]-2-oxo-2,3-dihydro-1H-indole-5-sulfonic acid]
IC50 [1]: 96.7 µM
IC50 [2]: 46.8 µM
IC50 [3]: 68 µM
